Assay results published in PMC7778606, “Development of the phenylpyrazolo[3,4-d]pyrimidine-based, insulin-like growth factor receptor/Src/AXL-targeting small molecule kinase inhibitor” (Theranostics, 2021).

Tests used:
Experiment in all cases: KINOMEscan competition binding assay
CDK11 = biological target: T1, CDK11 (Homo sapiens, UniProt Q9BWU1); details: LL6 at 10 μM; read-out: Percent Control
T1 construct: purchased DiscoverX KINOMEscan
Description: (§1) Kd values were obtained by KINOMEscan from DiscoverX (San Diego, CA, USA). To briefly summarize, Kd was measured by a competition binding assay that quantitatively measures the ability of a compound to compete with an immobilized ligand. […] Dose response curves of 11 points are obtained for Kd values, which are measured in duplicate. See more details in the cited references [39]-[42] and see also at www.discoverx.com.

CDK2 = biological target: T2, CDK2 (Homo sapiens, UniProt P24941); details: LL6 at 10 μM; read-out: Percent Control
T2 construct: purchased DiscoverX KINOMEscan
Description: as §1

CDK7 = biological target: T3, CDK7 (Homo sapiens, UniProt P50613); details: LL6 at 10 μM; read-out: Percent Control
T3 construct: purchased DiscoverX KINOMEscan
Description: as §1

CHEK1 = biological target: T4, CHEK1 (Homo sapiens, UniProt O14757); details: LL6 at 10 μM; read-out: Percent Control
T4 construct: purchased DiscoverX KINOMEscan
Description: as §1

CSF1R = biological target: T5, CSF1R (Homo sapiens, UniProt P07333)
T5 construct: purchased DiscoverX (KINOMEscan service)
Description: as §1

DYRK1B = biological target: T6, DYRK1B (Homo sapiens, UniProt Q9Y463); details: LL6 at 10 μM; read-out: Percent Control
T6 construct: purchased DiscoverX KINOMEscan
Description: as §1

EGFR(L858R) = biological target: T7, EGFR(L858R) (Homo sapiens, UniProt P00533, L858R); details: LL6 at 10 μM; read-out: Percent Control
T7 construct: purchased DiscoverX KINOMEscan
Description: as §1

ERBB2 = biological target: T8, ERBB2 (Homo sapiens, UniProt P04626); details: LL6 at 10 μM; read-out: Percent Control
T8 construct: purchased DiscoverX KINOMEscan
Description: as §1

ERK1 = biological target: T9, ERK1 (Homo sapiens, UniProt P27361); details: LL6 at 10 μM; read-out: Percent Control
T9 construct: purchased DiscoverX KINOMEscan
Description: as §1

FAK = biological target: T10, FAK (Homo sapiens, UniProt Q05397); details: LL6 at 10 μM; read-out: Percent Control
T10 construct: purchased DiscoverX KINOMEscan
Description: as §1

FLT3 = biological target: T11, FLT3 (Homo sapiens, UniProt P36888); details: LL6 at 10 μM; read-out: Percent Control
T11 construct: purchased DiscoverX KINOMEscan
Description: as §1

GSK3B = biological target: T12, GSK3B (Homo sapiens, UniProt P49841); details: LL6 at 10 μM; read-out: Percent Control
T12 construct: purchased DiscoverX KINOMEscan
Description: as §1

IKK-alpha = biological target: T13, IKK-alpha (Homo sapiens, UniProt O15111); details: LL6 at 10 μM; read-out: Percent Control
T13 construct: purchased DiscoverX KINOMEscan
Description: as §1

IR = biological target: T14, IR (Homo sapiens, UniProt P06213)
T14 construct: purchased DiscoverX (KINOMEscan service)
Description: as §1

[1] = biological target: T15, JAK2(JH1domain-catalytic) (Homo sapiens, UniProt O60674); details: LL6 at 10 μM; read-out: Percent Control
T15 construct: JAK2(JH1domain-catalytic); purchased DiscoverX KINOMEscan
Description: as §1

[2] = biological target: T16, JAK3(JH1domain-catalytic) (Homo sapiens, UniProt P52333); details: LL6 at 10 μM; read-out: Percent Control
T16 construct: JAK3(JH1domain-catalytic); purchased DiscoverX KINOMEscan
Description: as §1

JNK3 = biological target: T17, JNK3 (Homo sapiens, UniProt P53779); details: LL6 at 10 μM; read-out: Percent Control
T17 construct: purchased DiscoverX KINOMEscan
Description: as §1

KIT = biological target: T18, KIT (Homo sapiens, UniProt P10721)
T18 construct: purchased DiscoverX (KINOMEscan service)
Description: as §1

KIT(D816V) = biological target: T19, KIT(D816V) (Homo sapiens, UniProt P10721, D816V); details: LL6 at 10 μM; read-out: Percent Control
T19 construct: purchased DiscoverX KINOMEscan
Description: as §1

KIT(V559D,T670I) = biological target: T20, KIT(V559D,T670I) (Homo sapiens, UniProt P10721, T670I/V559D); details: LL6 at 10 μM; read-out: Percent Control
T20 construct: purchased DiscoverX KINOMEscan
Description: as §1

LKB1 = biological target: T21, LKB1 (Homo sapiens, UniProt Q15831); details: LL6 at 10 μM; read-out: Percent Control
T21 construct: purchased DiscoverX KINOMEscan
Description: as §1

MARK3 = biological target: T22, MARK3 (Homo sapiens, UniProt P27448); details: LL6 at 10 μM; read-out: Percent Control
T22 construct: purchased DiscoverX KINOMEscan
Description: as §1

MET = biological target: T23, MET (Homo sapiens, UniProt P08581); details: LL6 at 10 μM; read-out: Percent Control
T23 construct: purchased DiscoverX KINOMEscan
Description: as §1

MKNK1 = biological target: T24, MKNK1 (Homo sapiens, UniProt Q9BUB5); details: LL6 at 10 μM; read-out: Percent Control
T24 construct: purchased DiscoverX KINOMEscan
Description: as §1

MKNK2 = biological target: T25, MKNK2 (Homo sapiens, UniProt Q9HBH9); details: LL6 at 10 μM; read-out: Percent Control
T25 construct: purchased DiscoverX KINOMEscan
Description: as §1

PAK2 = biological target: T26, PAK2 (Homo sapiens, UniProt Q13177); details: LL6 at 10 μM; read-out: Percent Control
T26 construct: purchased DiscoverX KINOMEscan
Description: as §1

PAK4 = biological target: T27, PAK4 (Homo sapiens, UniProt O96013); details: LL6 at 10 μM; read-out: Percent Control
T27 construct: purchased DiscoverX KINOMEscan
Description: as §1

PIK3CA = biological target: T28, PIK3CA (Homo sapiens, UniProt P42336); details: LL6 at 10 μM; read-out: Percent Control
T28 construct: purchased DiscoverX KINOMEscan
Description: as §1

PIM2 = biological target: T29, PIM2 (Homo sapiens, UniProt Q9P1W9); details: LL6 at 10 μM; read-out: Percent Control
T29 construct: purchased DiscoverX KINOMEscan
Description: as §1

PKAC-alpha = biological target: T30, PKAC-alpha (Homo sapiens, UniProt P17612); details: LL6 at 10 μM; read-out: Percent Control
T30 construct: purchased DiscoverX KINOMEscan
Description: as §1

PRKCE = biological target: T31, PRKCE (Homo sapiens, UniProt Q02156); details: LL6 at 10 μM; read-out: Percent Control
T31 construct: purchased DiscoverX KINOMEscan
Description: as §1

RET = biological target: T32, RET (Homo sapiens, UniProt P07949); details: LL6 at 10 μM; read-out: Percent Control
T32 construct: purchased DiscoverX KINOMEscan
Description: as §1

[3] = biological target: T33, RSK2(Kin.Dom.1-N-terminal) (Homo sapiens, UniProt P51812); details: LL6 at 10 μM; read-out: Percent Control
T33 construct: RSK2(Kin.Dom.1-N-terminal); purchased DiscoverX KINOMEscan
Description: as §1

SRPK3 = biological target: T34, SRPK3 (Homo sapiens, UniProt Q9UPE1); details: LL6 at 10 μM; read-out: Percent Control
T34 construct: purchased DiscoverX KINOMEscan
Description: as §1

TGFBR1 = biological target: T35, TGFBR1 (Homo sapiens, UniProt P36897); details: LL6 at 10 μM; read-out: Percent Control
T35 construct: purchased DiscoverX KINOMEscan
Description: as §1

TIE2 = biological target: T36, TIE2 (Homo sapiens, UniProt Q02763); details: LL6 at 10 μM; read-out: Percent Control
T36 construct: purchased DiscoverX KINOMEscan
Description: as §1

ULK2 = biological target: T37, ULK2 (Homo sapiens, UniProt Q8IYT8); details: LL6 at 10 μM; read-out: Percent Control
T37 construct: purchased DiscoverX KINOMEscan
Description: as §1

VEGFR2 = biological target: T38, VEGFR2 (Homo sapiens, UniProt P35968); details: LL6 at 10 μM; read-out: Percent Control
T38 construct: purchased DiscoverX KINOMEscan
Description: as §1

[4] = LL6 at 10 μM, read-out: Percent Control

T18 sequence (P10721 26-976): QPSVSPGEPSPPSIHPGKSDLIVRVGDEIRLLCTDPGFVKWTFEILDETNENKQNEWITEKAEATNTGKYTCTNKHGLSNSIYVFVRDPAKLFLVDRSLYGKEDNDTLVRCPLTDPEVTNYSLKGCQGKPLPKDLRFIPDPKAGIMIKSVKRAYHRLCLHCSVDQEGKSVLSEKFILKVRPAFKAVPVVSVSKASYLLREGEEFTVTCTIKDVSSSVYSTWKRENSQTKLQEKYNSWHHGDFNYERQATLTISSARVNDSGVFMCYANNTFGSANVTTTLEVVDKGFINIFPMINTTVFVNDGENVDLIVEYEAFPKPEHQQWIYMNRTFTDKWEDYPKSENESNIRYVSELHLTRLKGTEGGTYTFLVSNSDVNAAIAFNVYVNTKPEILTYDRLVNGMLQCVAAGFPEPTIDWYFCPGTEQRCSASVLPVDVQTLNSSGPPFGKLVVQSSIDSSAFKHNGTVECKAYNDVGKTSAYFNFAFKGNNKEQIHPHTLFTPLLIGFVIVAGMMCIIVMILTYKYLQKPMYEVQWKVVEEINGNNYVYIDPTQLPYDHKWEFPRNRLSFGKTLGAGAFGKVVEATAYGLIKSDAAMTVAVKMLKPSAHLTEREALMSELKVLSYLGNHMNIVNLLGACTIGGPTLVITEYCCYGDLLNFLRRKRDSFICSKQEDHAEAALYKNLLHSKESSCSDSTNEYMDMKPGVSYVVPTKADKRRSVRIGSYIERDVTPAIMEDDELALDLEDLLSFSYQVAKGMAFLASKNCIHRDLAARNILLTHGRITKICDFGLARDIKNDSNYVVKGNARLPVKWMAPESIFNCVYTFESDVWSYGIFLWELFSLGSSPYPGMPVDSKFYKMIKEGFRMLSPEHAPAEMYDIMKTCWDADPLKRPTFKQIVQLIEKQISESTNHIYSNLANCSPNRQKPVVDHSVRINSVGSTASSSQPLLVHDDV
T5 sequence (P07333 20-972): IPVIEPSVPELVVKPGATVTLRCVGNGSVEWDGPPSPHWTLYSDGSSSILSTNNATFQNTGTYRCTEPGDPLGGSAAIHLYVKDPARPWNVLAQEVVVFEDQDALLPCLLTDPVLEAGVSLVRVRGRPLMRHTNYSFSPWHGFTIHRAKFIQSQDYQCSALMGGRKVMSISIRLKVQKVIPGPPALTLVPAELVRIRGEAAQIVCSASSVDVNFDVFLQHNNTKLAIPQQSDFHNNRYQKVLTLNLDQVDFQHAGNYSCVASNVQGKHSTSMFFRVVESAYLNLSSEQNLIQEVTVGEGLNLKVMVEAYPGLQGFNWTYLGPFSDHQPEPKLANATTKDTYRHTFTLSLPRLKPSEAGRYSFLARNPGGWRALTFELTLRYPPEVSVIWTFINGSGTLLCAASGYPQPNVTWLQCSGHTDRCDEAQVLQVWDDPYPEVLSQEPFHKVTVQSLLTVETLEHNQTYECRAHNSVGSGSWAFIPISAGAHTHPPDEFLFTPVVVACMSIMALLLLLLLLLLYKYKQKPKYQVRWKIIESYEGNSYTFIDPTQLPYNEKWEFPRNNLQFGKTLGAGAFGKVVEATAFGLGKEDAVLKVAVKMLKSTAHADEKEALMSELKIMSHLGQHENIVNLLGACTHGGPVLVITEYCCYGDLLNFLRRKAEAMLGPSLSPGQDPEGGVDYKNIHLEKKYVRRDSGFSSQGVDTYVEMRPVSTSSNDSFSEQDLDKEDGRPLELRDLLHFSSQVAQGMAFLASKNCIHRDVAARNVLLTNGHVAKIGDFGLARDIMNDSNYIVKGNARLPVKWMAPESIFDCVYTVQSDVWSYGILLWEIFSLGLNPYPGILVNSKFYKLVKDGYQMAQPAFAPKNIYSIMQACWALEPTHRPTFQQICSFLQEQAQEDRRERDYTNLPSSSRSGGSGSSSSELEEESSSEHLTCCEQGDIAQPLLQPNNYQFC
T14 sequence (P06213 28-1382): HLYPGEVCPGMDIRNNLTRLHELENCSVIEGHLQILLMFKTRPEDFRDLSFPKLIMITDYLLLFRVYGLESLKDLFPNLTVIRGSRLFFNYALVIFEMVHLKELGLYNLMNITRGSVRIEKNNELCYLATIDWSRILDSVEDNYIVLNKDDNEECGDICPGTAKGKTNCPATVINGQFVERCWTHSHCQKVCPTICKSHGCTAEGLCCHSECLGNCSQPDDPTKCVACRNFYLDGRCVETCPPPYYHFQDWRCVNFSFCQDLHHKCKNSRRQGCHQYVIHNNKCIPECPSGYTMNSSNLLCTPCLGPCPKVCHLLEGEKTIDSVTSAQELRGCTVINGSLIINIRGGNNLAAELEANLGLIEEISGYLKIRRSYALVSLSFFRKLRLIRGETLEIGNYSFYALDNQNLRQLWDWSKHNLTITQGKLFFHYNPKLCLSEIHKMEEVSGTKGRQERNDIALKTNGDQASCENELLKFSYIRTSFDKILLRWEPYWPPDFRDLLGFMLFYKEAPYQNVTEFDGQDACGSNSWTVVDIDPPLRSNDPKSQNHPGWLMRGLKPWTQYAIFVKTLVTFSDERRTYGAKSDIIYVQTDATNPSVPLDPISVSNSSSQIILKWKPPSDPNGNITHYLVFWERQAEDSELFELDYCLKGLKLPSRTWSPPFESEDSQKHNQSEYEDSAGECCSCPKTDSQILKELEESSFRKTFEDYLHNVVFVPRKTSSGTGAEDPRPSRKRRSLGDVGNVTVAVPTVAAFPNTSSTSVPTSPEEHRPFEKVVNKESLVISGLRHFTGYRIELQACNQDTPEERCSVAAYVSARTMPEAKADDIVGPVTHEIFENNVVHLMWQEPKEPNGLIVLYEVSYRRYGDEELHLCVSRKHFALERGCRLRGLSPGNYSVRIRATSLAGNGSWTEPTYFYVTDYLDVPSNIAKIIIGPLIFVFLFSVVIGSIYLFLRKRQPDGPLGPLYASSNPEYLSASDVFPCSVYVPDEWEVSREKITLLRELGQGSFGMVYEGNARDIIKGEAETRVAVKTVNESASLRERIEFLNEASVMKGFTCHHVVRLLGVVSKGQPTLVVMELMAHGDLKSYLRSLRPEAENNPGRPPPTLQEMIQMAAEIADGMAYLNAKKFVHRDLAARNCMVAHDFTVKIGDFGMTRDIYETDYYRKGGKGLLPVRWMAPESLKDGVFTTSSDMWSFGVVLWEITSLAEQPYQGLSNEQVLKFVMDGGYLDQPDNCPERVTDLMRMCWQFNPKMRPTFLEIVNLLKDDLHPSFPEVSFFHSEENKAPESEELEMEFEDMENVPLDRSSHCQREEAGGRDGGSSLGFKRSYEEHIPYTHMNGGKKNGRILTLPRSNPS
T15 sequence (O60674 849-1124 limits assumed): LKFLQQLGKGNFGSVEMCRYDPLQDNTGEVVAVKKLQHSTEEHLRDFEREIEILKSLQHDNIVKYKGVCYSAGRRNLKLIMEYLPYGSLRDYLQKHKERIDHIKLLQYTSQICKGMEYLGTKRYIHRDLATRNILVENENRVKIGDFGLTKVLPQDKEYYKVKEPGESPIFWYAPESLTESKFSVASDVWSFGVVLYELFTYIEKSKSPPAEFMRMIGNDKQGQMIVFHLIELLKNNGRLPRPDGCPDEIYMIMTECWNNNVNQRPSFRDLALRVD
T6 sequence (Q9Y463 whole entry): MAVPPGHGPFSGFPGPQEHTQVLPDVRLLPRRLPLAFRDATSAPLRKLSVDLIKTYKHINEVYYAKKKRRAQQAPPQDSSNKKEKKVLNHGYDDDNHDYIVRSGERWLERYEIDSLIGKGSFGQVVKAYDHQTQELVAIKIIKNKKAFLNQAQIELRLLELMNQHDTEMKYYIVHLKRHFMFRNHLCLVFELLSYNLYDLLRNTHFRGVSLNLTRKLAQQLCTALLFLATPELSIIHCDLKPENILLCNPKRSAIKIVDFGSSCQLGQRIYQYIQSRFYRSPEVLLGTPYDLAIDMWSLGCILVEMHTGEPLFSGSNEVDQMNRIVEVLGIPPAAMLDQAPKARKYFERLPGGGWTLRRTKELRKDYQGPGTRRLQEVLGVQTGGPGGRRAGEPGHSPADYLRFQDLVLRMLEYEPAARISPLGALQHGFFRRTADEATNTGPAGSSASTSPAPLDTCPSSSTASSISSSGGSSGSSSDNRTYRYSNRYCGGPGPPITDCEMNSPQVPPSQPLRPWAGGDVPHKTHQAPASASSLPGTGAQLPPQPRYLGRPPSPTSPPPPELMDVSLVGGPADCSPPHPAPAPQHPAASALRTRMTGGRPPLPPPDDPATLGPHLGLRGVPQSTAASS
T22 sequence (P27448 whole entry): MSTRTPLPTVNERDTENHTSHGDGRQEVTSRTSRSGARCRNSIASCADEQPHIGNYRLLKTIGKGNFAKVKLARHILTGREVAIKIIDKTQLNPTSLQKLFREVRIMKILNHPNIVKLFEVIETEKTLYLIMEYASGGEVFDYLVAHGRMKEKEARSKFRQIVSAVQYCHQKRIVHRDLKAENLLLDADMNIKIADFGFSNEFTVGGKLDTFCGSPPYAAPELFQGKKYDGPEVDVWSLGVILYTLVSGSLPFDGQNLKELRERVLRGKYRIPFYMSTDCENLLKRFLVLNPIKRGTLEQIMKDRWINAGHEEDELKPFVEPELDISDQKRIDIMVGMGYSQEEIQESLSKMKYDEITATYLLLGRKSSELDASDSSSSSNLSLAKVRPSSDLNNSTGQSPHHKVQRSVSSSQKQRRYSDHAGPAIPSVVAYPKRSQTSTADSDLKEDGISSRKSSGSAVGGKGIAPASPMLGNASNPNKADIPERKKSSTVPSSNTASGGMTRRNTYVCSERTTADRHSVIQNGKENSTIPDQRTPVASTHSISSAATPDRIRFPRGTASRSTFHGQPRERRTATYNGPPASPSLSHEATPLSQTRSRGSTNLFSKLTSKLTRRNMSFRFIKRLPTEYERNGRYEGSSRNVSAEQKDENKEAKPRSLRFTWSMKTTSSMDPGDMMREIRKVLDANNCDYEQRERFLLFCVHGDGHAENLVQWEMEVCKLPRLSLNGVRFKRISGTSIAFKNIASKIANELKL
T19 sequence (P10721 26-976 D816V): as the sequence (P10721 26-976) above, with D791V counted along it
T20 sequence (P10721 26-976 V559D/T670I): as the sequence (P10721 26-976) above, with V534D, T645I counted along it

In the case of `Nc1ncnc2c1c(-c1ccc(Cl)cc1)nn2CCn1cc(COc2ccc(Nc3nccc(Nc4cnc5ccccc5c4)n3)cc2)nn1` [LL6], the remaining binding at 10 µM (CDK11) is reported as 13%, the remaining binding at 10 µM (CDK2) is reported as 99% and the remaining binding at 10 µM (CDK7) is reported as 56%. For the same molecule, the remaining binding at 10 µM (CHEK1) was 100%, the Kd (CSF1R; CSF1R, 11-point dose response, duplicate) was “did not show dose-dependent inhibition curves” and the inhibition at 10 µM (CSF1R; CSF1R, LL6 at 10 µM) was greater than 65%. The remaining binding at 10 µM (CSF1R; [4]) was 29%, the remaining binding at 10 µM (DYRK1B) was 55% and the remaining binding at 10 µM (EGFR(L858R)) was 88%. For the same molecule, the remaining binding at 10 µM (ERBB2) was 100%, the remaining binding at 10 µM (ERK1) was 100% and the remaining binding at 10 µM (FAK) was 73%. It also gave a remaining binding at 10 µM (FLT3) of 43%, a remaining binding at 10 µM (GSK3B) of 67% and a remaining binding at 10 µM (IKK-alpha) of 100%. The Kd (IR; IR, 11-point dose response, duplicate) was “not accurately measurable”, the inhibition at 10 µM (IR; IR, LL6 at 10 µM) was greater than 65% and the remaining binding at 10 µM (IR; [4]) was 35%. The remaining binding at 10 µM [1] was 100%, the remaining binding at 10 µM [2] was 100% and the remaining binding at 10 µM (JNK3) was 42%. The Kd (KIT; KIT, 11-point dose response, duplicate) was “did not show dose-dependent inhibition curves”, the inhibition at 10 µM (KIT; KIT, LL6 at 10 µM) was greater than 65% and the remaining binding at 10 µM (KIT; [4]) was 1.8%. For the same molecule, the remaining binding at 10 µM (KIT(D816V)) was 66%, the remaining binding at 10 µM (KIT(V559D,T670I)) was 80% and the remaining binding at 10 µM (LKB1) was 90%. For the same molecule, the remaining binding at 10 µM (MARK3) was 100%, the remaining binding at 10 µM (MET) was 75% and the remaining binding at 10 µM (MKNK1) was 100%. It also gave a remaining binding at 10 µM (MKNK2) of 89%, a remaining binding at 10 µM (PAK2) of 100% and a remaining binding at 10 µM (PAK4) of 97%. It also gave a remaining binding at 10 µM (PIK3CA) of 100%, a remaining binding at 10 µM (PIM2) of 100% and a remaining binding at 10 µM (PKAC-alpha) of 36%. The remaining binding at 10 µM (PRKCE) was 100%, the remaining binding at 10 µM (RET) was 81% and the remaining binding at 10 µM [3] was 25%. The remaining binding at 10 µM (SRPK3) was 84%, the remaining binding at 10 µM (TGFBR1) was 46% and the remaining binding at 10 µM (TIE2) was 62%. The remaining binding at 10 µM (ULK2) was 96% and the remaining binding at 10 µM (VEGFR2) was 65%.
